{
  "source": "patent US20180250306A1",
  "about": "“ALDEHYDE CONJUGATES AND USES THEREOF” (ALDEYRA THERAPEUTICS, INC., priority 2015, published 2018)",
  "key": {"IL-1β": {"test_system": "IL-1β", "experiment": "Western Blot of IL-1β levels in cardiac fibroblasts", "format": "cell-based, neonatal rats", "details": "p<0.01", "method": "(§1) Thirty hearts from neonatal rats were minced and digested (Neonatal Cardiomyocyte Isolation System, LK003303, Worthington). After tissue digestion and cell dissociation, cell suspensions were plated into 35 mm dishes or onto coverslips in wells of 24-well plates. Serum-free DMEM was added to the cell suspensions and the cells allowed to adhere for 2 hrs. After two hours, the cell suspension was removed and the adherent cells were fed with DMEM containing 10% fetal bovine serum (FBS). Cells were maintained in DMEM+10% FBS for 24 hours before treatments. Treatment duration was 24 hours.\n(§2) Cell samples were divided in to 2 groups, stimulated with H2O2 or not stimulated with H2O2. […] The cells that were treated with H2O2 contained a final concentration of 0.001% in the wells. Drug was dissolved in 9.5% Captisol®, to a stock concentration of 5 mg/ml. […] Cells were treated for 24 hours then either fixed for immunostaining or collected as lysates for Western Blot analysis.\nWhole cell lysates were used for Western blotting; nuclear and cytosolic fractions were not prepared. DMEM from cells plated in 35 mm plates was removed, the cells rinsed quickly in PBS, then incubated in 500 ul cold RIPA buffer for 20-30 minutes at 4° C. under gentle rocking. Following RIPA incubation, cells were scraped from the dish using cell scrapers and frozen at −80° C. overnight to increase cell lysing. […]"}, "cardiac fibroblasts": {"test_system": "cardiac fibroblasts", "experiment": "Fibroblast activation to myofibroblast phenotype, immunostaining for α-SMA and vimentin", "format": "cell-based, neonatal rats", "method": "as §1, §2\n(§3) After 24 hours of treatment, cells on cover slips were rinsed twice with PBS, fixed in 1% paraformaldehyde for 10 minutes then rinsed in PBS for immunostaining. Cells were permeabilized for 18 minutes in 0.1% Triton-X 100 in PBS, then rinsed three times in PBS for 15 minutes each. Following the rinses, cover slips were incubated in Image-IT FX Signal Enhancer (Invitrogen) to reduce background intensities in images. Subsequently, cells were washed three times 15 min with PBS, followed by one hour of blocking in 10% Normal Goat Serum Cells and 0.05% Triton-X 100, and then incubated overnight in 4° C. with primary antibodies diluted in PBS with 2% Normal Goat Serum and 0.05% Triton-X 100. Antibodies were applied at the following concentrations: Alpha-Smooth Muscle Actin 1:200 (V5228, Sigma-Aldrich), Vimentin 1:200 (V6630, Sigma-Aldrich) and NFκB 1:200 (C-20, Santa Cruz Biotech). Following overnight incubation, cover slips were brought to room temperature over 10 minutes and then rinsed in PBS for 15 min. Following 1 hour of incubation in the dark with secondary antibodies (1:100 in PBS, A-21127 and A-21136, Life Technologies), cover slips were rinsed 3 times for 15 min in PBS, incubated in the dark with DAPI (Invitrogen, 1:600) for 10 minutes, and then rinsed for 3 times in PBS. Cover slips were then mounted upside down on glass slides and examined using a Leica SP8 confocal microscope equipped with a 10× air lens. Images were taken as described and split into channels. Each channel was reviewed by eye to determine if NFκB was in the nucleus or in the cytosol."}, "NFκB": {"test_system": "NFκB", "experiment": "NFκB translocation to the nucleus of cardiac fibroblasts (immunostaining)", "format": "cell-based, neonatal rats", "details": "unstimulated cells; for cells with NFκB localization in nuclei: 24 hours (untreated 76.6%)", "method": "as §1, §2\nas §3, with “Following 1 hour of incubation in the dark with secondary antibodies (1:100 in PBS, A-21127 and A-21136, Life Technologies), cover slips were rinsed 3 times for 15 min in PBS, incubated in the dark with DAPI (Invitrogen, 1:600) for 10 minutes, and then rinsed for 3 times in PBS. Cover slips were then mounted upside down on glass slides and examined using a Leica SP8 confocal microscope equipped with a 10× air lens. Images were taken as described and split into channels. Each channel was reviewed by eye to determine if NFκB was in the nucleus or in the cytosol.” left out"}, "[1]": {"experiment": "Aldehyde adduct formation over time (product HPLC peak)", "method": "It is not possible to conclude if this is the result of poor dissociation (from cyclodextrin) or poor interaction with the aldehyde. Best fit lines over this period give excellent fit to data. […] It can be used to relatively rank each of the samples examined, including NS2. The data were first evaluated over a 7 h time window."}, "α-SMA": {"test_system": "α-SMA", "experiment": "Western Blot of α-SMA in cardiac fibroblasts", "format": "cell-based, neonatal rats", "details": "for α-SMA level (Western Blot): H2O2 stimulated cardiac fibroblasts", "method": "as §1, §2\nWhole cell lysates were used for Western blotting; nuclear and cytosolic fractions were not prepared. DMEM from cells plated in 35 mm plates was removed, the cells rinsed quickly in PBS, then incubated in 500 ul cold RIPA buffer for 20-30 minutes at 4° C. under gentle rocking. Following RIPA incubation, cells were scraped from the dish using cell scrapers and frozen at −80° C. overnight to increase cell lysing. Once thawed, cells were sonicated for 1 minute at 80% maximal power (Biologics Model 150 B/T). Samples were centrifuged at 13K for 10 min at 4° C. then supernatant was separated from pellet for analysis by gel electrophoresis. BCA protein analysis was run to determine total protein, samples normalized to 0.2 ug/uL, and then loaded onto Novex 8% Bolt gels. Gels were run for 35 min at 200 V in MOPS buffer or until the lower molecular weight band reached the bottom of the gel. Protein was then transferred to Hybond 0.45 uM Nitrocellulose (GE Healthcare) for 1 hour. Blots were blocked for 1 hr at room temperature in 5% BSA/TBSt. […]"}, "[2]": {"experiment": "Preliminary single dose i.p. pharmacokinetics of NS2 and NS2-SSA adduct formation in wild type mice", "format": "in vivo, wild type C57B16 mice", "method": "Mice were 41-46 days old on the day of treatment, and groups (n=3) were balanced for age, gender and starting weight (18±3 g). […] The results of this study informed the design of a subsequent 8-hour single dose study to measure additional biochemical outcomes (GHB and related metabolites) in both SSADH deficient mice and wild type littermates.\nA preliminary assessment of single dose, i.p. pharmacokinetics (PK) was conducted in wild type C57B16 mice. Mice were 41-46 days old at the time of dosing. […] Three mice per timepoint were used for pharmacokinetic analysis. The study design is outlined in Table 6 below.\nHomogenates (100 μL) were protein-precipitated with cold acetonitrile containing 0.1% formic acid (900 μL). Serum samples (25 μL) were protein-precipitated with 425 μL of cold acetonitrile containing 0.1% formic acid. Samples were centrifuged at 2,500×g then supernatant was transferred to a clean tube and dried under a constant heated flow of nitrogen (50° C.). Samples were reconstituted in 100 μL of mobile phase A (water with 0.1% formic acid, LC-MS/MS grade reagents).\nThese studies were performed only in wild-type C57B16 mice (n=21). […] The mice ranged in age from 41-46 days of age."}, "[3]": {"details": "rank from most effective (1) to least"}, "[4]": {"details": "wild type mice, single dose 10 mg/kg i.p."}},
  "data": [
    {"compound": "CC(C)(O)c1nc2ccc(Cl)cc2cc1N", "note": "[NS2, 2-(3-amino-6-chloroquinolin-2-yl)propan-2-ol]", "values": [
      {"measurement": "IL-1β levels (Western Blot)", "setting": "IL-1β; H2O2-stimulated cells", "value": "significant decreases"},
      {"measurement": "IL-1β levels (Western Blot)", "setting": "IL-1β; unstimulated cells", "value": "significant decreases"},
      {"measurement": "cell morphology", "setting": "cardiac fibroblasts; 1 mM, cells stimulated with H2O2 or not", "value": "morphology of a non-activated fibroblast"},
      {"measurement": "α-SMA production and morphology change (immunostaining)", "setting": "cardiac fibroblasts; H2O2 stimulated cells, 10 μM, 24 hours", "value": "little effect"},
      {"measurement": "α-SMA production (immunostaining)", "setting": "cardiac fibroblasts; H2O2 stimulated cells, 100 μM, 24 hours", "value": "clear inhibition"},
      {"measurement": "cell shape of activated myofibroblasts", "setting": "cardiac fibroblasts; unstimulated cells, 10 μM", "value": "does not change"},
      {"measurement": "α-SMA production (immunostaining)", "setting": "cardiac fibroblasts; unstimulated cells, 10 μM, 24 hours", "value": "little effect"},
      {"measurement": "cell morphology", "setting": "cardiac fibroblasts; unstimulated cells, 100 μM", "value": "morphology more like that of a non-activated fibroblast"},
      {"measurement": "α-SMA production (immunostaining)", "setting": "cardiac fibroblasts; unstimulated cells, 100 μM, 24 hours", "value": "inhibited the production of α-SMA"},
      {"measurement": "α-SMA production (immunostaining)", "setting": "cardiac fibroblasts; unstimulated cells, 1 mM, 24 hours", "value": "appeared to limit the production of α-SMA"},
      {"measurement": "cells with NFκB localization in nuclei", "setting": "NFκB; 10 μM", "value": 30.7, "unit": "%"},
      {"measurement": "cells with NFκB localization in nuclei", "setting": "NFκB; 100 μM", "value": 35.7, "unit": "%"},
      {"measurement": "cells with nuclear NFκB", "setting": "NFκB; 1 mM, very few cells, not conclusive", "value": "no cells"},
      {"measurement": "Gradient of product HPLC peak increase (rate of adduct formation)", "setting": "[1]; 7 h time window", "value": "(Gradient 2.22,"},
      {"measurement": "Gradient of product HPLC peak increase (rate of adduct formation)", "setting": "[1]; 23 h time window", "value": "(Gradient 1.33,"},
      {"measurement": "Formation of Product, ranking, 7 Hours", "setting": "[1]; [3]", "value": 2},
      {"measurement": "Formation of Product, ranking, 23 Hours", "setting": "[1]; [3]", "value": 2},
      {"measurement": "α-SMA level (Western Blot)", "setting": "α-SMA; 10 μM", "value": "no significant change"},
      {"measurement": "α-SMA level (Western Blot)", "setting": "α-SMA; increased dose (100 μM, 1 mM), p<0.01", "value": "further α-SMA decreases, which were significant"},
      {"measurement": "α-SMA level (Western Blot) compared to control", "setting": "α-SMA; non-stimulated cardiac fibroblasts, 10 μM, 100 μM, 1 mM", "value": "significant decreases"},
      {"measurement": "concentration at 24 h", "setting": "[2]; both sexes, C57B16 (wild type), mouse, serum, ip, wild type mice, single dose 10 mg/kg i.p., by 24 hours", "value": "< 50", "unit": "nM"},
      {"measurement": "tolerability", "setting": "[2]; mouse, in vivo, ip, 10 mg/kg", "value": "tolerated"},
      {"measurement": "brain penetration of NS2", "setting": "[2]; [4]", "value": "good brain penetration"},
      {"measurement": "order of NS2 pharmacokinetics", "setting": "[2]; [4]", "value": "first-order pharmacokinetics"},
      {"measurement": "peak serum concentration of NS2", "setting": "[2]; [4]", "value": "43.1 ± 15.4", "unit": "µM"},
      {"measurement": "time to peak serum concentration of NS2", "setting": "[2]; [4]", "value": 0.5, "unit": "h"},
      {"measurement": "peak concentration of NS2 in brain", "setting": "[2]; wild type mice, single dose 10 mg/kg i.p., brain", "value": "52.4±22.9"},
      {"measurement": "peak concentration of NS2 in liver", "setting": "[2]; wild type mice, single dose 10 mg/kg i.p., liver", "value": "116±3.1"}
    ]}
  ]
}
